Source: the supplement of paper PMC10307832

Tests used:
Test in all cases: relative viability (nuclei count vs DMSO), 5 days (fraction); higher = more cells survive
SGI-1776 + OSI-027 = compound: CN1CCC(CNc2ccc3ncc(-c4cccc(OC(F)(F)F)c4)n3n2)CC1 [SGI-1776] + COc1cccc2cc(-c3nc([C@H]4CC[C@H](C(=O)O)CC4)n4ncnc(N)c34)[nH]c12 [OSI-027] (partner 0.5 µM)
How it was run: (§1)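 For relative viability, nuclei counts in treated wells were divided by those in vehicle wells. Lung cancer cell lines had been pin-tool dosed in 1536-well plates the day after seeding and cultured for 5 days, then fixed and stained in one step (final 0.05% Triton X-100, 1% formaldehyde, 1 ug/ml Hoechst) and imaged at 4×. Doses were one drug alone or a fixed anchor-drug dose plus five library-drug doses (not always all listed) in √10 steps, and values are duplicate-plate medians.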

Entinostat + Vorinostat = compound: Nc1ccccc1NC(=O)c1ccc(CNC(=O)OCc2cccnc2)cc1 [Entinostat] + O=C(CCCCCCC(=O)Nc1ccccc1)NO [Vorinostat] (partner 1 µM)
How it was run: as §1

[1] = compound: C1COCCN1C2=NC(=NC3=C2OC4=C3C=CC=N4)C5=CC(=CC=C5)NC(=O)C6=CN=C(C=C6)N + CCNC(=O)c1noc(-c2cc(C(C)C)c(O)cc2O)c1-c1ccc(CN2CCOCC2)cc1 [Luminespib] (partner 0.01 µM)
How it was run: as §1

[2] = compound: C1COCCN1C2=NC(=NC3=C2OC4=C3C=CC=N4)C5=CC(=CC=C5)NC(=O)C6=CN=C(C=C6)N + Cc1nc(Nc2ncc(C(=O)Nc3c(C)cccc3Cl)s2)cc(N2CCN(CCO)CC2)n1 [Dasatinib] (partner 0.075 µM)
How it was run: as §1

Row | Cell Line | relative viability (SGI-1776 + OSI-027; first compound 0.08 µM) | relative viability (SGI-1776 + OSI-027; first compound 0.8 µM) | relative viability (SGI-1776 + OSI-027; first compound 2.53 µM) | relative viability (SGI-1776 + OSI-027; first compound 8 µM) | relative viability (Entinostat + Vorinostat; first compound 0.02 µM) | relative viability (Entinostat + Vorinostat; first compound 0.06325 µM) | relative viability (Entinostat + Vorinostat; first compound 0.2 µM) | relative viability (Entinostat + Vorinostat; first compound 0.6325 µM) | relative viability (Entinostat + Vorinostat; first compound 2 µM) | relative viability ([1]; first compound 0.02 µM) | relative viability ([1]; first compound 0.06325 µM) | relative viability ([1]; first compound 0.2 µM) | relative viability ([1]; first compound 0.6325 µM) | relative viability ([1]; first compound 2 µM) | relative viability ([2]; first compound 0.02 µM) | relative viability ([2]; first compound 0.06325 µM) | relative viability ([2]; first compound 0.2 µM) | relative viability ([2]; first compound 0.6325 µM) | relative viability ([2]; first compound 2 µM)
1 | NCI-H1915 | 0.642 | 0.645 | 0.618 | 0.49 | 0.488 | 0.499 | 0.481 | 0.356 | 0.152 | 0.95 | 0.85 | 0.829 | 0.432 | 0.267 | 0.277 | 0.329 | 0.331 | 0.349 | 0.264
2 | NCI-H1944 | 0.436 | 0.428 | 0.344 | 0.342 | 0.59 | 0.576 | 0.452 | 0.307 | 0.246 | 0.728 | 0.786 | 0.665 | 0.555 | 0.553 | 0.201 | 0.211 | 0.206 | 0.215 | 0.207
3 | NCI-H1975 | 0.72 | 0.688 | 0.525 | 0.428 | 0.692 | 0.651 | 0.509 | 0.347 | 0.211 | 0.157 | 0.148 | 0.202 | 0.29 | 0.3 | 0.362 | 0.388 | 0.298 | 0.296 | 0.187
4 | NCI-H1993 | 0.549 | 0.52 | 0.551 | 0.525 | 0.841 | 0.661 | 0.73 | 0.453 | 0.351 | 0.906 | 0.776 | 0.707 | 0.802 | 0.689 | 0.553 | 0.552 | 0.594 | 0.572 | 0.492
5 | NCI-H2009 | 0.653 | 0.636 | 0.591 | 0.282 | 0.664 | 0.72 | 0.762 | 0.581 | 0.416 | 1.07 | 1.07 | 0.999 | 1.01 | 0.725 | 0.245 | 0.278 | 0.215 | 0.219 | 0.215
6 | NCI-H2023 | 0.415 | 0.388 | 0.319 | 0.167 | 0.541 | 0.536 | 0.318 | 0.118 | 0.0713 | 0.793 | 0.38 | 0.477 | 0.507 | 0.245 | 0.632 | 0.648 | 0.47 | 0.484 | 0.251
7 | NCI-H2085 | 0.745 | 0.828 | 0.853 | 0.44 | 0.731 | 0.763 | 0.788 | 0.608 | 0.419 | 0.386 | 0.46 | 0.402 | 0.372 | 0.327 | 0.223 | 0.252 | 0.25 | 0.204 | 0.258
8 | NCI-H2087 | 0.704 | 0.693 | 0.566 | 0.496 | 1.07 | 0.407 | 0.697 | 0.451 | 0.157 | 0.146 | 0.16 | 0.137 | 0.204 | 0.142 | 0.942 | 0.913 | 0.799 | 0.845 | 0.441
9 | NCI-H2126 | 0.708 | 0.813 | 0.693 | 0.659 | 0.74 | 0.883 | 0.733 | 0.314 | 0.317 | 0.892 | 0.894 | 0.871 | 0.845 | 0.566 | 0.691 | 0.587 | 0.528 | 0.507 | 0.551
10 | NCI-H2170 | 0.741 | 0.671 | 0.666 | 0.67 | 0.803 | 0.72 | 0.683 | 0.476 | 0.265 | 0.579 | 0.893 | 0.723 | 0.606 | 0.584 | 0.561 | 0.507 | 0.551 | 0.538 | 0.618
11 | NCI-H2228 | 0.644 | 0.582 | 0.425 | 0.275 | 0.675 | 0.683 | 0.761 | 0.406 | 0.32 | 0.143 | 0.194 | 0.209 | 0.115 | 0.111 | 0.647 | 0.487 | 0.439 | 0.33 | 0.246
12 | NCI-H2342 | 0.671 | 0.671 | 0.552 | 0.622 | 0.855 | 0.859 | 0.709 | 0.772 | 0.691 | 0.746 | 0.768 | 0.719 | 0.665 | 0.596 | 0.296 | 0.306 | 0.283 | 0.327 | 0.301
13 | NCI-H2347 | 0.421 | 0.489 | 0.518 | 0.426 | 0.368 | 0.643 | 0.528 | 0.303 | 0.264 | 0.37 | 0.283 | 0.341 | 0.342 | 0.315 | 0.291 | 0.257 | 0.349 | 0.321 | 0.323
14 | NCI-H2405 | 0.643 | 0.659 | 0.549 | 0.568 | 1.23 | 1.02 | 0.979 | 0.693 | 0.42 | 0.647 | 0.644 | 0.639 | 0.536 | 0.473 | 0.209 | 0.229 | 0.223 | 0.215 | 0.213
15 | NCI-H3122 | 0.988 | 0.967 | 0.926 | 0.862 | 1.09 | 0.904 | 0.979 | 0.634 | 0.255 | 0.0667 | 0.0713 | 0.0835 | 0.0904 | 0.077 | 0.796 | 0.786 | 0.787 | 0.868 | 0.657
16 | PC-3 [JPC-3] | 0.791 | 0.818 | 0.74 | 0.672 | 1.15 | 0.911 | 0.597 | 0.525 | 0.36 | 0.704 | 0.675 | 0.754 | 0.675 | 0.613 | 1.18 | 1.08 | 1.02 | 0.818 | 0.629
17 | PC-14 | 0.857 | 0.945 | 0.671 | 0.0734 | 0.689 | 0.668 | 0.615 | 0.147 | 0.0636 | 0.184 | 0.189 | 0.13 | 0.151 | 0.148 | 0.229 | 0.229 | 0.218 | 0.138 | 0.175
